Reference: US9676792B2, “Pyrimido-diazepinone compounds and methods of treating disorders” (Dana-Farber Cancer Institute, Inc., priority 2013, dated 2017)
Where “and” joins values, the source holds several entries; their conditions need not be identical. Identical values can stand only once. Like-named read-outs stand apart in the source and are kept apart here. Values belong to the compound of their own block, whether it stands above or below them.

Tests used:
EphB2 [1] = target: T1, EphB2 (Homo sapiens (Human), UniProt P29323); experiment: ActivX kinase profiling; format: binding
panel of 442 kinases [2] = experiment: KINOMEscan selectivity profiling; format: binding; conditions: 10 μM
Excerpt: We assessed the selectivity of this scaffold using the KINOMEscan methodology across a near comprehensive panel of 442 kinases. […]

ERK5 [3] = target: T2, ERK5 (Homo sapiens (Human), UniProt Q13164); experiment: KiNativ chemical proteomics profiling in HeLa and PC3 cell lysates; format: binding; conditions: read-out: ERK5 inhibition (KiNativ)
Excerpt: Compared with our previously reported ERK5 inhibitor, XMD8-92 (11, S10=0.012, 5/402), compound 26 represents a further improvement in selectivity. […] Compounds 25 and 26 were also profiled against selected panels of kinases in HeLa and PC3 cell lysates using a chemical proteomics approach, KiNativ.

LRRK2 = LRRK2 (Homo sapiens (Human), UniProt Q5S007); conditions: cited from earlier work
ERK5 [4] = target: T2, ERK5; conditions: cited from earlier work
panel of 442 kinases [5] = conditions: cited from earlier work
EphA1 = EphA1 (Homo sapiens (Human), UniProt P21709); experiment: Ambit kinase profiling; format: binding
EphA2 [6] = target: T3, EphA2 (Homo sapiens (Human), UniProt P29317); experiment: Ambit kinase profiling; format: binding
EPHA3 = EPHA3 (Homo sapiens (Human), UniProt P29320); experiment: Ambit kinase profiling; format: binding
EPHA4 = EPHA4 (Homo sapiens (Human), UniProt P54764); experiment: Ambit kinase profiling; format: binding
EPHA5 = EPHA5 (Homo sapiens (Human), UniProt P54756); experiment: Ambit kinase profiling; format: binding
EPHA8 = experiment: Ambit kinase profiling; format: binding
EphA7 = EphA7 (Homo sapiens (Human), UniProt Q15375); experiment: Ambit kinase profiling; format: binding
EPHB1 = EPHB1 (Homo sapiens (Human), UniProt P54762); experiment: Ambit kinase profiling; format: binding
EphB2 [7] = target: T1, EphB2; experiment: Ambit kinase profiling; format: binding
EPHB3 = EPHB3 (Homo sapiens (Human), UniProt P54753); experiment: Ambit kinase profiling; format: binding
EphB4 = EphB4 (Homo sapiens (Human), UniProt P54760); experiment: Ambit kinase profiling; format: binding
EPHB6 = EPHB6 (Homo sapiens (Human), UniProt O15197); experiment: Ambit kinase profiling; format: binding
EphA2 [8] = target: T3, EphA2; experiment: In vitro EphA2 kinase assay, Invitrogen EphA2 Z'-LYTE activity assay; format: biochemical
Description: Example 13: In Vitro EphA2 Kinase Assay—Invitrogen EphA2 Z′-LYTE Activity Assay
EphA2 kinase assays were performed according to the methods described in Z′-LYTE® Screening Protocol and Assay Conditions at the Life Technologies website (available at http://www.invitrogen.com).

T3 sequence (P29317 24-976): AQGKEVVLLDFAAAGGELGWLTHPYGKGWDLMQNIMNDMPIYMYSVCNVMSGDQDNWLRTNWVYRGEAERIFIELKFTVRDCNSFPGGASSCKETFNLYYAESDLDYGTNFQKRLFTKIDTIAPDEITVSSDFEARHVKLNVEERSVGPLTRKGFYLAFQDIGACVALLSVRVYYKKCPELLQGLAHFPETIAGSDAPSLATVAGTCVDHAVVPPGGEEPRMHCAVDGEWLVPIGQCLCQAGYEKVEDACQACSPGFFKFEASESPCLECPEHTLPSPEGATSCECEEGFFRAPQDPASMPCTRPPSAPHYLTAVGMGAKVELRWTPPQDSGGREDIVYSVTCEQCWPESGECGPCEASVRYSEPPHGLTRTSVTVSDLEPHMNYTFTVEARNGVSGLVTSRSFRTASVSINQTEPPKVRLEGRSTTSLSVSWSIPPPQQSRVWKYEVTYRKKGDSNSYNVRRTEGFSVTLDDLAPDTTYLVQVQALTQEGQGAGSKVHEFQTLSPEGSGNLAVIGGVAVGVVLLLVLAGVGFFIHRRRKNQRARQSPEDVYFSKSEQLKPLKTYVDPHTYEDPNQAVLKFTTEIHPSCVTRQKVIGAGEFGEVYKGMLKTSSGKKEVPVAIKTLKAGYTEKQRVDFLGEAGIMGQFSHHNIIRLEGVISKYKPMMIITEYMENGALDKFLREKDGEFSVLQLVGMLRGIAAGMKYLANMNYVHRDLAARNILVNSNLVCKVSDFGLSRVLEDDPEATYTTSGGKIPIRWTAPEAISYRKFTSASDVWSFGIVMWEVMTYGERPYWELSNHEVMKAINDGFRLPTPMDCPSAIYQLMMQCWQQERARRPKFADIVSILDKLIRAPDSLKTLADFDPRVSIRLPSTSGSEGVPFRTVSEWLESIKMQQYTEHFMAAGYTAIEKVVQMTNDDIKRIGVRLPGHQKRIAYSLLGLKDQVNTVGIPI
T1 sequence (P29323 19-1055): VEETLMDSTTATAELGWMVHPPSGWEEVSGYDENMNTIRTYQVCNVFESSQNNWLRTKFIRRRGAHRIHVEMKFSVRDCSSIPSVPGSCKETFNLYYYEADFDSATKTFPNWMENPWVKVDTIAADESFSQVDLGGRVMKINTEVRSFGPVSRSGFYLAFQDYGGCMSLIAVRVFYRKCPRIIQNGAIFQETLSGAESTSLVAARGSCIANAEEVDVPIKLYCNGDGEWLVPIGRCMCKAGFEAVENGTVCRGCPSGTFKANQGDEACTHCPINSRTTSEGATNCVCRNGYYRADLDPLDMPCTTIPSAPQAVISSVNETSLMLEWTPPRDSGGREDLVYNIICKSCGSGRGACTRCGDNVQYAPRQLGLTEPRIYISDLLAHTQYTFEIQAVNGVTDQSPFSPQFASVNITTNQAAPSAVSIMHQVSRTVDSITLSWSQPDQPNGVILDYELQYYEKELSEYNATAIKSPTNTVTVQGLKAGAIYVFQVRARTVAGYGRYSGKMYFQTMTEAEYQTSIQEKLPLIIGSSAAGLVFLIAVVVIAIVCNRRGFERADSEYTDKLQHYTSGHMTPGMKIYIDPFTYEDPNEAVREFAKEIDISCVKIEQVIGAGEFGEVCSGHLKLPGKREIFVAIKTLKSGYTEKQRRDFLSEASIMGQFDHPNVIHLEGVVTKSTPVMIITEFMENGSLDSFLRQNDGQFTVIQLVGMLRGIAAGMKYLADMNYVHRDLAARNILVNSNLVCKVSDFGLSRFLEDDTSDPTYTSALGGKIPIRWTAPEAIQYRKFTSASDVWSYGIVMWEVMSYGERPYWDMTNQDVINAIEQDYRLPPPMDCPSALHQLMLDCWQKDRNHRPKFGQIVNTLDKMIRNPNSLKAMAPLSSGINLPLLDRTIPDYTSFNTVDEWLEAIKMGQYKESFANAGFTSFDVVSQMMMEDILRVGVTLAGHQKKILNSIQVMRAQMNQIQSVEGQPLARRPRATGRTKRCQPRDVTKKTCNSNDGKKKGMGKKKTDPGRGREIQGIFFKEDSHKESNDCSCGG
T2 sequence (Q13164 2-816 limits assumed): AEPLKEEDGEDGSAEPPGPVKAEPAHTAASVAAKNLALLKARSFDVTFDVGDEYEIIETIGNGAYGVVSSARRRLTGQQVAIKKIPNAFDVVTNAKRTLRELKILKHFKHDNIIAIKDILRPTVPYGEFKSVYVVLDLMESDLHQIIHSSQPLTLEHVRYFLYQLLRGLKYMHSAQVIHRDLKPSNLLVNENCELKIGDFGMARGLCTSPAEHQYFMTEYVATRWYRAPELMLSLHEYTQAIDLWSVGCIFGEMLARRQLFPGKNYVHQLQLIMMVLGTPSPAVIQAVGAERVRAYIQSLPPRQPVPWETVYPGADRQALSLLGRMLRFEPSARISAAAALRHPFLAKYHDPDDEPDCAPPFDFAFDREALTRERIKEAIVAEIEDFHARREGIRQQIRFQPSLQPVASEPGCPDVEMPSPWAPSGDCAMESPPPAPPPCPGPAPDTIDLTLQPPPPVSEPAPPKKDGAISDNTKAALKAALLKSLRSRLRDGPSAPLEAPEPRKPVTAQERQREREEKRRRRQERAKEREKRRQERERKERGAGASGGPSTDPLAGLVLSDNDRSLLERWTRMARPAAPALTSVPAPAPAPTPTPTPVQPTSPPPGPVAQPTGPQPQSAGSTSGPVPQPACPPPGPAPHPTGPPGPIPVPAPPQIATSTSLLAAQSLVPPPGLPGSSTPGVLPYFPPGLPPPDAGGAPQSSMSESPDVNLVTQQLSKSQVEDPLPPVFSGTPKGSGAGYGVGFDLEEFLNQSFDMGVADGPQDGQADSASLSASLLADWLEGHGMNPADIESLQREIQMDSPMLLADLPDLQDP
Sequence of EPHB6 (O15197 32-1021): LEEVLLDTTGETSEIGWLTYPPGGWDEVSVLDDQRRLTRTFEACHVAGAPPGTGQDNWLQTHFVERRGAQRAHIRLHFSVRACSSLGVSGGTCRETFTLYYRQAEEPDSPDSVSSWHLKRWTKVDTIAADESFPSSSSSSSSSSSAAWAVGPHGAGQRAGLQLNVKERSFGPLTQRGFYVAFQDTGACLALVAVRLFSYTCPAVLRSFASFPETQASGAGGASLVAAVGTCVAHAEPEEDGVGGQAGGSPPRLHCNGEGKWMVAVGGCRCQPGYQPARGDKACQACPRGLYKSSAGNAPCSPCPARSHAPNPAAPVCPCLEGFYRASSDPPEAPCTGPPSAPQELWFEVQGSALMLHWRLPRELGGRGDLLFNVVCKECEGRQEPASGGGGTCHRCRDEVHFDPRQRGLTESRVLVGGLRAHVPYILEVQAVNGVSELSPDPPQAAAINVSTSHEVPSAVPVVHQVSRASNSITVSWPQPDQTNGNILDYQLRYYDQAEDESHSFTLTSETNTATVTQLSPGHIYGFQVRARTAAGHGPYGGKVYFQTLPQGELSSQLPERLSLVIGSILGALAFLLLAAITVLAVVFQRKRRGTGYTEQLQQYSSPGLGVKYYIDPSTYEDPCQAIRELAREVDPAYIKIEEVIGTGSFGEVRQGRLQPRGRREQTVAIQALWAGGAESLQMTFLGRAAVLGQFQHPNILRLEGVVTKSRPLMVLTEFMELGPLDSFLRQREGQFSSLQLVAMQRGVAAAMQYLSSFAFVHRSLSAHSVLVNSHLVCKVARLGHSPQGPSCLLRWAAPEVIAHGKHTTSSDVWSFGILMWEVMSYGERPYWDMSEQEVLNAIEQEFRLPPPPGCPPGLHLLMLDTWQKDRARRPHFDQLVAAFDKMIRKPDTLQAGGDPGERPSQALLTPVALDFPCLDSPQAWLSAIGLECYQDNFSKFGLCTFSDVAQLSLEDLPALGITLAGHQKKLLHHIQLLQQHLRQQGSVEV
Sequence of EPHB3 (P54753 34-998): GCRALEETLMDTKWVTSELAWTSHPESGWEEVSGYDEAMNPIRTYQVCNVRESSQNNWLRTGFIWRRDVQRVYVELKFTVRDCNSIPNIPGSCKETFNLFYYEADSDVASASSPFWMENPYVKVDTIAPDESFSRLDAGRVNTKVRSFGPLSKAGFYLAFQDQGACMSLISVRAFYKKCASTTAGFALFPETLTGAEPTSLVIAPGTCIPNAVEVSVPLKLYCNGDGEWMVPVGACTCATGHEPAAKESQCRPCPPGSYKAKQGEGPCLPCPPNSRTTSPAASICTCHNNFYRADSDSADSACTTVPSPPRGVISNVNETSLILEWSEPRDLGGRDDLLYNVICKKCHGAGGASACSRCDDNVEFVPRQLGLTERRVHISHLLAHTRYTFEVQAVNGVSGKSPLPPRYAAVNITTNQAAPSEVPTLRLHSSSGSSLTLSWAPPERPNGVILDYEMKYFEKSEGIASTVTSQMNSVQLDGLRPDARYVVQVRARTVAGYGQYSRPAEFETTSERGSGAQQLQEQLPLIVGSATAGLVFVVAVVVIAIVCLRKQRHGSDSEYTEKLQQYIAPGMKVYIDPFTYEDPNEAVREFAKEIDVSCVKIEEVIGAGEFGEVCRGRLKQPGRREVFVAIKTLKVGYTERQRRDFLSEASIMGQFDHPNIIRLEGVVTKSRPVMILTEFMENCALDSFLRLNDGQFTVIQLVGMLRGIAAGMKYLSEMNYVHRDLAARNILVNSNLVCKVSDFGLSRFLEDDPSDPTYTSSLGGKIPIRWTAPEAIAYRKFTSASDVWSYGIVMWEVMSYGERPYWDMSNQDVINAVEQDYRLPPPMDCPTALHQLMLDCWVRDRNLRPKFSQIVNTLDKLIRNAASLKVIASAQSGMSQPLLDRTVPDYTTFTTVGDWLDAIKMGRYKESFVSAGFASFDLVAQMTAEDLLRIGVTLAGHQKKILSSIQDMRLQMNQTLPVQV

Compound: COc1cc(C(=O)N2CCC(N3CCN(C)CC3)CC2)ccc1Nc1ncc2c(n1)N(C1CCCC1)c1ccccc1C(=O)N2C [Compound 25]
KINOMEscan selectivity score S10 (panel of 442 kinases [2]): 0.018
inhibition at 10 µM (ERK5 [3]): > 90%

Compound: O=C(Nc1cccnc1)c1cc(-c2ccnc(F)c2)ccc1OCc1ccccc1 [GSK2578215A, 2-arylmethyloxy-5-subtitutent-N-arylbenzamide]
LRRK2 inhibition as reported (LRRK2): potent LRRK2 inhibitors
ERK5 inhibition as reported (ERK5 [4]): do not inhibit ERK5

Compound: CNc1nc(Nc2ccc(C(=O)N3CCOCC3)cc2OC)ncc1Cl [HG-10-102-01, (4-((5-chloro-4-(methylamino)pyrimidin-2-yl)amino)-3-methoxyphenyl)(morpholino)methanone]
LRRK2 inhibition as reported (LRRK2): potent LRRK2 inhibitors
ERK5 inhibition as reported (ERK5 [4]): do not inhibit ERK5

Compound: COc1cc(C(=O)N2CCC(N3CCN(C)CC3)CC2)ccc1Nc1ncc2c(n1)N(C)c1ccccc1C(=O)N2C [LRRK2-IN-1]
KINOMEscan selectivity score S10 (panel of 442 kinases [5]; previous LRRK2 inhibitor, 16/442): 0.036

Compound: O=C1Nc2cnc(Nc3ccc(N4CCC(O)CC4)cc3)nc2-c2ccccc2N1Cc1ccccc1Cl [XMD16-101-1]
ActivX EphB2 (EphB2 [1]): 6.1

Compound: O=C1Nc2cnc(Nc3ccc(N4CCC(O)CC4)cc3)nc2-c2ccccc2N1Cc1c(Cl)cccc1Cl [XMD16-101-2]
ActivX EphB2 (EphB2 [1]): 0.6

Compound: CN1C(=O)N(Cc2ccccc2Cl)c2ccccc2-c2nc(Nc3ccc(N4CCC(O)CC4)cc3)ncc21 [XMD16-122-1]
ActivX EphB2 (EphB2 [1]): −13

Compound: CN1C(=O)N(Cc2c(Cl)cccc2Cl)c2ccccc2-c2nc(Nc3ccc(N4CCC(O)CC4)cc3)ncc21 [XMD16-122-2]
ActivX EphB2 (EphB2 [1]): −5.5

Compound: Cc1ccccc1CN1C(=O)N(C)c2cnc(Nc3ccc(N4CCC(O)CC4)cc3)nc2-c2ccccc21 [XMD16-124]
ActivX EphB2 (EphB2 [1]): 18.3
Ambit EPHA1 (EphA1): 81
Ambit EPHA2 (EphA2 [6]): 93
Ambit EPHA3 (EPHA3): 77
Ambit EPHA4 (EPHA4): 89
Ambit EPHA5 (EPHA5): 90
Ambit EPHA8 (EPHA8): 100
Ambit EPHA7 (EphA7): 100
Ambit EPHB1 (EPHB1): 84
Ambit EPHB2 (EphB2 [7]): 100
Ambit EPHB3 (EPHB3): 93
Ambit EPHB4 (EphB4): 99
Ambit EPHB6 (EPHB6): 78

Compound: XMD8-92
KINOMEscan selectivity score S10 (panel of 442 kinases [5]; previously reported, 5/402 kinases): 0.012

Now from value to compound:

ActivX EphB2 (EphB2 [1]): 5.2
Compound: COc1cc(N2CCN(C)CC2)ccc1Nc1ncc2c(n1)-c1ccccc1N(C1CCCC1)C(=O)N2 [AB-1-15]

ActivX EphB2 (EphB2 [1]): 7
Compound: COc1cc(N2CCN(C)CC2)ccc1Nc1ncc2c(n1)-c1ccccc1N(C1CCOCC1)C(=O)N2 [AB-1-16]

ActivX EphB2 (EphB2 [1]): 21.5
Compound: O=C1Nc2cnc(Nc3ccc(N4CCC(O)CC4)cc3)nc2-c2ccccc2N1C1CCCC1 [AB-1-17]

ActivX EphB2 (EphB2 [1]): 6.8
Compound: CN1C(=O)N(C2CCCC2)c2ccccc2-c2nc(Nc3ccc(N4CCC(O)CC4)cc3)ncc21 [AB-1-24]

ActivX EphB2 (EphB2 [1]): 97.2
Compound: O=C1Nc2ccccc2-c2nc(Nc3ccc(N4CCC(O)CC4)cc3)ncc2N1 [XMD16-95]

ActivX EphB2 (EphB2 [1]): 19.8
Ambit EPHA1 (EphA1): 69
Ambit EPHA2 (EphA2 [6]): 100
Ambit EPHA3 (EPHA3): 47
Ambit EPHA4 (EPHA4): 84
Ambit EPHA5 (EPHA5): 91
Ambit EPHA8 (EPHA8): 92 and 100
Ambit EPHA7 (EphA7): 100
Ambit EPHB1 (EPHB1): 91
Ambit EPHB2 (EphB2 [7]): 100
Ambit EPHB3 (EPHB3): 93
Ambit EPHB4 (EphB4): 91
Ambit EPHB6 (EPHB6): 20
Compound: CN1C(=O)N(C)c2cnc(Nc3ccc(N4CCC(O)CC4)cc3)nc2-c2ccccc21 [XMD16-117]

ActivX EphB2 (EphB2 [1]): −20.9
Compound: COc1cc(C(=O)N2CCC(N3CCN(C)CC3)CC2)ccc1Nc1ncc2c(n1)-c1ccccc1N(C)C(=O)N2C [XMD16-118]

ActivX EphB2 (EphB2 [1]): 60.1
Compound: COc1cc(C(=O)N2CCC(N3CCN(C)CC3)CC2)ccc1Nc1ncc2c(n1)-c1ccccc1NC(=O)N2 [XMD16-120]

ActivX EphB2 (EphB2 [1]): 12.2
Compound: COc1cc(C(=O)N2CCC(N3CCN(C)CC3)CC2)ccc1Nc1ncc2c(n1)-c1ccccc1N(Cc1ccccc1C)C(=O)N2 [XMD16-121]

ActivX EphB2 (EphB2 [1]): 2.5
Compound: COc1cc(C(=O)N2CCC(N3CCN(C)CC3)CC2)ccc1Nc1ncc2c(n1)-c1ccccc1N(Cc1ccccc1Cl)C(=O)N2C [XMD16-123-1]

ActivX EphB2 (EphB2 [1]): 0.9
Compound: COc1cc(C(=O)N2CCC(N3CCN(C)CC3)CC2)ccc1Nc1ncc2c(n1)-c1ccccc1N(Cc1ccccc1C)C(=O)N2C [XMD16-125]

EphA2 Activity (% Inhibition at 10 micromolar) (EphA2 [8]): −1.1% and −10.5%
ActivX EphB2 (EphB2 [1]): 2
Compound: COc1cc(C(=O)N2CCC(N3CCN(C)CC3)CC2)ccc1Nc1ncc2c(n1)-c1ccccc1N(C1CCCC1)C(=O)N2 [XMD16-127]

EphA2 Activity (% Inhibition at 10 micromolar) (EphA2 [8]): −5.1% and −8.2%
ActivX EphB2 (EphB2 [1]): 4.5
Compound: COc1cc(C(=O)N2CCC(N3CCN(C)CC3)CC2)ccc1Nc1ncc2c(n1)-c1ccccc1N(C1CCOCC1)C(=O)N2 [XMD16-128]
